Among the data in ChEMBL document CHEMBL1201862, “PubChem BioAssay data set” (2004) are AC50, EC50 and IC50 values, retold here.

Activity calls are given as the source filed them. Where only a bound is given, the exact number is not on record here.

Assay [1] has as its target T1, Histone-lysine N-methyltransferase NSD2 (Homo sapiens, UniProt O96028).
T1 sequence (O96028 whole entry): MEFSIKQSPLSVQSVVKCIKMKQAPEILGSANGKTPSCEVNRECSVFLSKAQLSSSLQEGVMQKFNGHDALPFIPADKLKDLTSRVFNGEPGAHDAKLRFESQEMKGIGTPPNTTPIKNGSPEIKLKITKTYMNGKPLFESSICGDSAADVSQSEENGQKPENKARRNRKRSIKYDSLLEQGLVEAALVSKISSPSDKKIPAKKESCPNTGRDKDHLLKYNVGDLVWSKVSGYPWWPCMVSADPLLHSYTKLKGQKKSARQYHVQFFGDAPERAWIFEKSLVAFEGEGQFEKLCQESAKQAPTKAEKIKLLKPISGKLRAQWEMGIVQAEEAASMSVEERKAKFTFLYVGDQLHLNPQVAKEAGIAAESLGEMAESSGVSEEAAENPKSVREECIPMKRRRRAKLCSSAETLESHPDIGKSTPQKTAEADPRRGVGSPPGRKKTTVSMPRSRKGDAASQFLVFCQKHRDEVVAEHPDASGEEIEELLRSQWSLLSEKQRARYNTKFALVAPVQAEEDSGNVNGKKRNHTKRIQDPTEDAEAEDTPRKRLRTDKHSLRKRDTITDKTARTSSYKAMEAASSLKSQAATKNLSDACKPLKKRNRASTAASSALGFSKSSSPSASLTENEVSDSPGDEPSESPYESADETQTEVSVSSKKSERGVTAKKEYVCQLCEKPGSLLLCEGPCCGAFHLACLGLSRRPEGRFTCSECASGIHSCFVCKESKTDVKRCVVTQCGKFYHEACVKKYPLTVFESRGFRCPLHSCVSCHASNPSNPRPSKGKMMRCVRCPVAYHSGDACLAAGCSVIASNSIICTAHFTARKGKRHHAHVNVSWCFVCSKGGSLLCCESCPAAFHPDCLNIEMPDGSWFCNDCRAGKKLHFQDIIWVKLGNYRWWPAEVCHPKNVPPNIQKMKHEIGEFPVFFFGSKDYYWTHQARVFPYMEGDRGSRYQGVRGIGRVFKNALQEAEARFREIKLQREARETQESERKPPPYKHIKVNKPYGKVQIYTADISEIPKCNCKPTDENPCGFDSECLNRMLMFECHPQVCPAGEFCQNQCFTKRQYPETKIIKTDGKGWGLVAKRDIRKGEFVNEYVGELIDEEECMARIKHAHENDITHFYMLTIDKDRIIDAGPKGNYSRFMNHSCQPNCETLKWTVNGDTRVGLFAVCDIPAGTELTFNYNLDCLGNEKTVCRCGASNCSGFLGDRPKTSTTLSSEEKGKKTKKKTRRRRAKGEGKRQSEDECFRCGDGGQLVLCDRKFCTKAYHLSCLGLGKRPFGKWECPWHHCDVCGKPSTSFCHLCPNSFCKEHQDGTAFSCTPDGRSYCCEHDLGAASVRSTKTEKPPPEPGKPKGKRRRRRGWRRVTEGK
In kind it is biochemical.

Assay [2] can be described thus: Luminescence Cell-Based Dose Response HTS to Identify Activators of Luciferase Translation or Activity in H4 […] Cells. [Related pubchem assays: 1829 (Project Summary), 1814 (Primary HTS)]. The class given is functional.
Assay [3] relates to H4. Description: Luminescence Cell-Based Dose Response HTS to Identify Activators of 5'UTR Stem-Loop Driven Prion Protein mRNA Translation in H4 Neuroglioblastoma Cells. [Related pubchem assays: 1829 (Project Summary), 1814 (Primary HTS)]. The class given is functional. As to conditions: Homo sapiens.
A short description of assay [4]: Luminescence Cell-Based Dose Confirmation HTS to Identify Activators of 5'UTR Stem-Loop Driven Alpha-Synuclein mRNA Translation in H4 Neuroglioblastoma Cells. [Related pubchem assays: 1829 (Project Summary), 1814 (Primary HTS)]. In kind it is functional.
The nature of assay [5]: growth suppression of PTEN-null colon cells, dose response, cell-based, HCT116 PTEN knockout (AID 1047).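 Also: HCT116 colon tumor cells with PTEN knocked out; cells exposed to compound for 60 hours before readout; potency for loss of cell viability measured by luminescence.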 In kind it is functional.
Assay [6] is described as follows: growth suppression of beta-catenin-knockout colon cells, dose response, cell-based, HCT116, human colon tumor (AID 1045).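 Also: HCT116 colon tumor cells with beta catenin knocked out; cells exposed to compound for 60 hours.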 In kind it is functional.
In assay [7] the target is T2, Corticotropin-releasing factor receptor 2/Corticotropin-releasing factor-binding protein (Homo sapiens, UniProt P24387+Q13324).
T2 sequence (Q13324 whole entry): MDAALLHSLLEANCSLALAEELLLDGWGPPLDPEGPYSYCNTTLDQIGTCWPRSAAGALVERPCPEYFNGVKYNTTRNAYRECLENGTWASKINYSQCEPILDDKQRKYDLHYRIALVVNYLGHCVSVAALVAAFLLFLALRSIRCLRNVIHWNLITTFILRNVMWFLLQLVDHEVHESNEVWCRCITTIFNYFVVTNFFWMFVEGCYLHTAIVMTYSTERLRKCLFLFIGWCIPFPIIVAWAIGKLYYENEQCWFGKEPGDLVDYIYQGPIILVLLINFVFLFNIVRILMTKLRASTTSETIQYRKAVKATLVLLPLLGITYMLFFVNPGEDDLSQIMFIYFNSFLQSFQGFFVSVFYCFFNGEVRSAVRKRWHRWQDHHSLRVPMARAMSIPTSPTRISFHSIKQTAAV
T2 sequence (P24387 whole entry): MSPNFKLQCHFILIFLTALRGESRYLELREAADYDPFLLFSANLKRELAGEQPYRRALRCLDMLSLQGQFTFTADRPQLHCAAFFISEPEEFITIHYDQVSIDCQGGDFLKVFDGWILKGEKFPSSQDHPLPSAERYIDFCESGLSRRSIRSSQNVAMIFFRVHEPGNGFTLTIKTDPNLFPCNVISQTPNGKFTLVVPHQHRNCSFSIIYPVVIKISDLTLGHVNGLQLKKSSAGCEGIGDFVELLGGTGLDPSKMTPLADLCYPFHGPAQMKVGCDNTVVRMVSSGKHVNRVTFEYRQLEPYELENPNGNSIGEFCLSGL
Description: activators of CRF receptor 2 with binding protein – uHTS hits, confirmation (AID 602473). In kind it is functional. As to conditions: read-out: EC50_Mean.

A short description of assay [8]: CRF-BP/CRF-R2 complex antagonists, dose response, cell-based, uHTS hits, 384-well (AID 651639). In kind it is functional, Homo sapiens. The conditions noted are these: read-out: IC50_Mean.
Assay [9] concerns the target T2, Corticotropin-releasing factor receptor 2/Corticotropin-releasing factor-binding protein. The assay is described as follows: Dose Response confirmation of uHTS hits for small molecule antagonists of the CRF-binding protein and CRF-R2 receptor complex. The class given is functional. As to conditions: read-out: IC50_Mean.
Assay [10] has as its target T3, Microphthalmia-associated transcription factor (Homo sapiens, UniProt O75030).
T3 sequence (O75030 whole entry): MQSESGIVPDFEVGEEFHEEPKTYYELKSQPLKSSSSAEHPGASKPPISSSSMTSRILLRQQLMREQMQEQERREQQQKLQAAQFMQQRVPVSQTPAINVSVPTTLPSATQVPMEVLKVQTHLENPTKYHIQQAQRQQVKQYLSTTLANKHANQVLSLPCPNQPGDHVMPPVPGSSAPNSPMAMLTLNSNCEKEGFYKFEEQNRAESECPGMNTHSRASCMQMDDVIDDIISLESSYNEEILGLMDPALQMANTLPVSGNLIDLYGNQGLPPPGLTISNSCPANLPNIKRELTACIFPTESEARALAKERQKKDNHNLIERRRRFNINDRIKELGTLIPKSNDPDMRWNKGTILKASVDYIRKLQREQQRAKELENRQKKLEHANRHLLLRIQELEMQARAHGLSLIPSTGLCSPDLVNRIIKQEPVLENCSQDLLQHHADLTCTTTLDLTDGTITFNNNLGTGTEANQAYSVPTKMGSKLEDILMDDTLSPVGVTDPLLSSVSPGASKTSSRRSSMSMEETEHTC
Description: TRPM1 promoter luciferase signal decrease, dose response, MITF inhibitor project, cell-based, SK-MEL-5, cherry-picked, set 3 (AID 493073).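 Also: SK-MEL-5 melanoma cells with luciferase driven by the MITF target TRPM1 promoter.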 In kind it is functional.

Assay [11] is described as follows: inhibitors of SNCA 5'UTR-driven reporter translation, confirmation, H4 neuroglioma cells, luminescence (AID 1988). The class given is functional, cell-based.
Assay [12] is described as follows: Luminescence Cell-Based Dose Response HTS to Identify Inhibitors of 5'UTR Stem-Loop Driven Prion Protein mRNA Translation in H4 Neuroglioblastoma Cells. [Related pubchem assays: 1827 (Project Summary), 1813 (Primary HTS)]. The class given is functional.
Assay [13] is described as follows: inhibitors of firefly luciferase expression or activity, dose response, H4 neuroglioma cells, luminescence (AID 1990). The class given is functional, cell-based.
Assay [14] concerns the target FAD-linked sulfhydryl oxidase ALR (Homo sapiens, UniProt P55789). Description: inhibitors of human ALR sulfhydryl oxidase, dose response, biochemical, H2O2 detection, luminescence, cherry-pick (AID 493248).
Assay [15] is described as follows: inhibitors of clade B AD8 Env fusion, dose response, cell-based, cherry-pick (AID 652062).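 Also: luciferase signal from cell-cell fusion driven by HIV-1 clade B AD8 Env; potency is for inhibitors of fusion seen as a drop in luminescence.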 The class given is functional.
Assay [16] in a line: inhibitors of HIV Env-driven cell fusion, dose response, cherry-pick (AID 652057). The class given is functional, cell-based.
Assay [17] in a line: P. falciparum Dd2 growth inhibitors, dose response, SYBR Green, cherry-picked samples (AID 1159567). The class given is functional, cell-based.

FAD-linked sulfhydryl oxidase ALR, sequence (P55789 whole entry, the tested form may be a part): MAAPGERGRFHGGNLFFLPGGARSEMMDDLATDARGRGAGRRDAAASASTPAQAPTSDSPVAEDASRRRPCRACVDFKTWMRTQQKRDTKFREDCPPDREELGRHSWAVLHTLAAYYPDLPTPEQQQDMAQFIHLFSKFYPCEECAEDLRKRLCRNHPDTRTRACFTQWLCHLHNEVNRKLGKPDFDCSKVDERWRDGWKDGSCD

Take `CCN(CC)c1ccc(CN2CC=C(c3ccc(F)cc3)CC2)cc1`: the AC50 in assay [1] is > 20 µM (inactive).
On to `O=C(NCC1CCCO1)c1cc2c(s1)CCC2` (centres undefined), for which the EC50 in assay [2] was 18.7 µM (active); in assay [3], 50.9 µM (active); in assay [4], 20.3 µM (active).
On to `O=C1NC(=S)N(C2CC2)C(=O)/C1=C/Nc1ccc2c(c1)OCO2`, for which the EC50 is 13.3 µM (active) in assay [2], 18.7 µM (active) in assay [3] and 95.4 µM (active) in [4].
In the same order, the values of `O=C(NCCc1ccc(F)cc1)c1[nH]nc2ccccc12` are 42 µM (active), 24.5 µM (active) and 17.8 µM (active).
In the same order, the values of `C[C@@H]1CC=C[C@H]2[C@H]1C(=O)N(Cc1ccccc1)[C@H]2c1ccc(-c2cc3ccccc3s2)cc1F` are 61.8 µM (active), 0.11 µM (active) and 0.251 µM (active).
`Cc1ccc(S(=O)(=O)Cc2ccc(C(=O)N3CCN(c4ccc(F)cc4)CC3)o2)cc1`: the figures for the EC50 in assay [5] and in assay [6] were 9.74 µM (active) and 10.1 µM (active), respectively.
Consider `Cc1ccc2c(c1)c1c3n2CCN(C(=O)CN2CCN(C)CC2)C3CCC1` (centres undefined), for which the results for the EC50 in assay [5] and in assay [6] were 16.1 µM (active) and 16.7 µM (active), respectively.
`CC(CNC(=O)c1ccc(OC2CCN(Cc3ccccn3)CC2)cc1)c1ccccc1` (centres undefined): the EC50 in assay [2] is 53.8 µM (active); in [3] it was 35.6 µM (active); in assay [4], 18.2 µM (active).
Consider `COc1cc2nc3c(O)n4c(nc-3c2cc1OC)SCCC4`, for which the EC50 in assay [2] is 3.61 µM (active); in assay [7], > 53 µM (inactive); in assay [3] it was 24.5 µM (active); in assay [4], > 120 µM (not active). The values for the IC50 in assay [8] and in [9] were > 20 µM (inactive) and 3.83 µM (active), respectively.
As to `C=CC[n+]1c(-c2ccc(C)cc2)csc1Nc1ccc(NC(C)=O)cc1`, the concentration at half-maximal activity (AC50) in [10] is 1.57 µM (active). The EC50 was 0.246 µM (active) in assay [11], 0.238 µM (active) in assay [12] and 2.34 µM (active) in assay [13].
On to `CCCNc1ccc(C(=O)OCC)cc1[N+](=O)[O-]`, for which the EC50 in assay [7] is > 53 µM (inactive). Also, the IC50 in [8] was > 20 µM (inactive); in [9] it was 17.6 µM (active).
On to `NC(=NOC(=O)Nc1ccccc1)c1ncc([N+](=O)[O-])s1`, for which the EC50 in assay [2], in assay [3] and in assay [4] was > 120 µM (not active) each time.
Regarding `COc1ccc(N2C(=O)CSC2c2ccc([N+](=O)[O-])cc2)cc1` (centres undefined), in [7], the EC50 is > 53 µM (inactive). The IC50 in assay [8] was 6.91 µM (active); in [9], 46.8 µM (active). Also, the AC50 in assay [14] was 5.9 µM (active).
Consider `CCN(CC)C(=O)[C@H]1CC(CC(=O)NC/C=C(\C)CCC=C(C)C)C(=O)N2CCc3c([nH]c4ccc(OC)cc34)[C@]12C` (some centres undefined), for which the EC50 in [7] was > 53 µM (inactive). The IC50 in [8] was 1.33 µM (active); in [9] it was 3.54 µM (active).
On to `COc1ccc(-c2ccc3c(c2)[C@@H]2[C@@H](CCN2C(=O)NC2CCCC2)[C@H](CO)N3C)cc1`, for which the AC50 in assay [15] was 2.83 µM (active); in assay [16], 26.5 µM (active).
Turning to `CN1C(=O)c2cc(NC(=O)c3cscn3)ccc2OC[C@@H]2O[C@@H](CC(=O)NCc3ccc(Cl)c(Cl)c3)CC[C@H]21`, the AC50 in assay [15] was 3.19 µM (active); in [16], 48.6 µM (active).
As to `N#C/C(=N\Nc1ccccc1)C(=N)N1CCCCCC1`, the EC50 was > 120 µM (not active) in [3] and 0.132 µM (active) in assay [4].
`C[C@@H]1CN([C@@H](C)CO)C(=O)c2cc(NC(=O)Nc3ccc4c(c3)OCO4)ccc2O[C@H]1CN(C)C(=O)Nc1cccc2ccccc12`: the AC50 in assay [17] is 4.89 µM (active).
Take `C[C@H]1CN([C@@H](C)CO)C(=O)c2c(c3ccccc3n2C)-c2ccccc2CO[C@H]1CN(C)S(=O)(=O)c1ccccc1C#N`: the AC50 in assay [17] was 5 µM (active).
The same measure, in the same setting: for `CCCC(=O)Nc1ccc2c(c1)OC[C@@H](C)N(Cc1cc(-c3ccccc3)on1)C[C@@H](C)[C@H](OC)CN(C)C2=O` the value was 5.19 µM (active).
On the same count and under the same terms, for `COCC(=O)N1CC2(C1)CN(Cc1cccc(Cl)c1)[C@@H](CO)c1[nH]c3cc(OC)ccc3c12` the value was 12.9 µM (active); for `CS(=O)(=O)N1[C@H](C#N)[C@H](c2ccccc2-c2ccc(F)cc2)[C@H]1CO`, 16.6 µM (active).
